PMC5307958 (Scientific Reports, 2017)
“Also recorded” adds a separate entry of the source. Where a SMILES comes first, the peptide text is derived from it. Bridges are numbered along the chain shown (N, C = ends).

Assays:
[1] = test system: auditory nerve and generators caudal to the IC; experiment: Auditory brainstem responses (ABR); type: in vivo, mouse
Description: (§1) The temperature was maintained near 25 °C.
ABR recordings were acquired after the mice were anesthetized with ketamine (120 mg/kg) and xylazine (10 mg/kg) I.P., and respiration was monitored throughout to determine when additional supplemental doses were needed. Body temperature was kept constant at 37 °C using a feedback controlled heating pad (Physitemp TCAT2-LV Controller, Clifton, NJ). Stimuli and recordings were generated digitally and controlled using a TDT RZ6 Multi-I/O Processor and their BioSig/SigGen software. Acoustic signals were played through a multi-field (MF1) magnetic speaker (TDT, Alachua, FL) with a total harmonic distortion < = 1% from 1 kHz to 50 kHz, centered 0° azimuth in regards to the animal at a distance of 10 cm from the ear pinna. Tone bursts were presented at frequencies of 6, 12, 16, 20, 24, and 36 kHz (3 ms duration, 1 ms rise/fall time, alternating polarity) at a rate of 29 per second, attenuated in 5 dB steps from 80 dB SPL to 15 dB below threshold or 5 dB SPL, whichever was lower. Threshold was determined by visual inspection as the lowest intensity level which produced a defined wave in both replicates. All signals were calibrated using a Larsen Davis preamplifier, model 2221, with a 1/4″ microphone and a Larson Davis CAL200 Precision Acoustic Calibrator (PCB Piezotronics, Inc., Depew, NY). ABR recordings were acquired using a TDT RA4LI low-impedance digital headstage and RA4PA Medusa preamp with the active (noninverting) electrode inserted at the vertex, the reference (inverting) electrode below the left ear, and the ground electrode below the right ear. The responses were amplified (20×), filtered (300 Hz–3 kHz), and averaged using BioSig software and the System III hardware (TDT) data-acquisition system. A total of 256 tone burst signal and 150 GIN signal recordings were replicated for each acquisition, and muscle artifacts exceeding 7 μV were rejected from the averaged response. All recordings took place in a soundproof booth lined with echo-attenuating acoustic foam. ABR waveforms were analyzed using a custom MatLab program that automatically determined peak latencies and amplitudes in combination with secondary verification by an experimenter blind to the treatment group.

[2] = test system: human BKα channel ZERO isoform expressed in HEK293 cells; experiment: Phagemid display selection (panning); type: binding
Description: A monovalent phagemid display library (library C, Mobitec) was sequentially panned against three sets of HEK293 cells (see below). For negative selection, cells expressed the human glycine receptor α1 (hGlyRα1, X52009) and the rat small conductance calcium-activated channel 2 (rSK2, U69882.1). For positive selection, cells expressed the human BKα channel ZERO isoform (NM_002238). The progress of the selection process was monitored after each panning round by titering and sequencing the phagemid DNA. With 6 randomized and 3 fixed amino acids, this library started with 3 × 10^7 unique sequences. LS3 was selected as one of the sequences expressing motifs that were enriched more than 1000 -fold. LS3 was synthesized as a TFA salt at 98–99% purity verified by HPLC and MS analysis (Genscript, Piscataway, NJ). Stocks were dissolved in water at 10 mM and aliquots were lyophilized and stored at −80 °C. As a secondary determination of identity and purity, in-house LC/MS was performed on a single quadrupole Mass Spectrophotometer (Agilent 6130) interfaced with a HPLC with a diode-array (UV-vis) detector (Agilent 1200).
HEK293 cells (ATCC, Manassas, VA) were grown according to standard procedures. Cells were cultured at 37 °C in a 5% CO2 atmosphere in Dulbecco’s modified Eagle’s medium with L-glutamine, sodium pyruvate and 10% fetal bovine serum (Invitrogen). Cell lines were split with trypsin/EDTA in Hanks’ balanced salt solution (Invitrogen) up to 25–30 cycles. For phage display, stable lines stably expressed rSK2 or hBKα ZERO isoform. Cells were transfected (Lipofectamine 2000, Invitrogen) with hGlyRα1 and used 48 hours later. For electrophysiological recordings, cells were transfected with hBKα ZERO isoform. Enhanced green fluorescent protein (EGFP) was cotransfected as a marker. Electrophysiological recordings were made 16–72 h after transfection. […]

[3] = Blood-brain barrier crossing inferred from functional activity in the IC; type: in vivo, mouse; conditions: inferred from suppression of sound evoked activity after topical (dura) or systemic (0.3 mg/kg I.P.) administration
Description: as §1

[4] = phage-displayed sequence CRRGLVQVC

CC(C)C[C@@H]1NC(=O)CNC(=O)[C@H](CCCNC(=N)N)NC(=O)[C@H](CCCNC(=N)N)NC(=O)[C@@H](N)CSSC[C@@H](C(=O)O)NC(=O)[C@H](C(C)C)NC(=O)[C@H](CCC(N)=O)NC(=O)[C@H](C(C)C)NC1=O [LS3] (H-CRRGLVQVC-OH; disulfide 1-9; N-terminus and C-terminus assumed)
mean ABR thresholds ([1]; 4 hours post I.P. injection vs. baseline, tone bursts): No significant effect
activity at cochlear BK channels ([1]; inferred from unaltered ABRs after systemic administration): not active at cochlear BK channels
effect on ABRs / peripheral auditory processing ([1]; systemic (I.P.) administration): without altering peripheral auditory processing; also recorded: does not alter ABRs
ABR peak 1 (P1) amplitude by intensity functions ([1]; systemic (I.P.) injection, 4 hrs vs. baseline, auditory nerve): unaffected; also recorded: Neither BK channel modulator reduced auditory nerve (P1)
ABR peak 4 (P4) amplitude by intensity functions ([1]; systemic (I.P.) injection, 4 hrs vs. baseline, generators caudal to the IC (brainstem)): unaffected; also recorded: Neither BK channel modulator reduced auditory nerve (P1) or brainstem (P4) amplitudes
enrichment of motifs expressed by the sequence ([2]; criterion for selection of LS3): more than 1000 fold
enrichment of motif RRXXXXV during selection [2, 4]: ~ 4000 fold
enrichment of motif XRGXXXV during selection [2, 4]: ~ 3000 fold
ability to cross the BBB [3]: can cross the BBB; also recorded: rapidly crosses the BBB after systemic delivery; also recorded: crosses the blood-brain barrier (BBB)
